In article PMC7539012, “Hyperphosphorylated tau aggregation and cytotoxicity modulators screen identified prescription drugs linked to Alzheimer's disease and cognitive functions” (Scientific Reports, 2020):
Where a name gives a salt, the structure may show the parent alone.

Test system: T1, 1N4R p-tau
T1 construct: made in house; host or cells: E. coli (PIMAX system)
Assay: p-tau aggregation modulator screen of 1280-compound library (ThS fluorescence net change over 16 h);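 further: 30 µM compound with 6 µM p-tau over 16 h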
Assay type: biochemical
Conditions: not given

Compound | ThS net change
COCCCC/C(=N\OCCN)c1ccc(C(F)(F)F)cc1 [Fluvoxamine maleate] | 420
CC(=O)NC1CCSC1=O (racemic) [N-Acetyl-DL-homocysteine Thiolactone] | 421
CCN(CC)CC(=O)Nc1c(C)cccc1C [Lidocaine hydrochloride] | 271
CN1[C@@H]2CC[C@H]1C[C@@H](OC(=O)C(CO)c1ccccc1)C2 (stereo partly drawn) [Atropine sulfate monohydrate] | 397
O=C(O)COCCN1CCN(C(c2ccccc2)c2ccc(Cl)cc2)CC1 (stereo not drawn) [Cetirizine dihydrochloride] | 373
Cc1c(Cl)cccc1Nc1ncccc1C(=O)O.NCCCC[C@H](N)C(=O)O [Clonixin Lysinate] | 462
CCCc1ncc(C[n+]2ccccc2C)c(N)n1 [Amprolium hydrochloride] | 424
CN1CC[C@@]2(C)c3cc(O)ccc3N(C)[C@H]12.O=C(O)/C=C/C(=O)O [(-)-Eseroline fumarate salt] | 309
Clc1ccc2c(c1)CCc1cccnc1C2=C1CCNCC1 [Desloratadine] | 457
CCOC(=O)c1cncn1[C@H](C)c1ccccc1 [Etomidate] | 447
O.O=P(O)(O)C(O)(Cc1cccnc1)P(=O)(O)O [Risedronic acid monohydrate] | 455

Same assay, conditions: 1280-compound library screen; ThS fluorescence net change over 16 h

Compound | ThS net change
Nc1nnc(-c2cccc(Cl)c2Cl)c(N)n1 [Lamotrigine] | 389
Cc1cccc(C)c1NC(=O)C(C)N (stereo not drawn) [Tocainide hydrochloride] | 412
CCCOc1ccc2nc(NC(=O)OC)[nH]c2c1 [Oxibendazol] | 391
Cc1ncc(C[n+]2csc(CCO)c2C)c(N)n1 [Thiamine hydrochloride] | 383
CN(C)CCOC1=Cc2ccccc2Sc2ccc(Cl)cc21 [Zotepine] | 388
Nc1ccc(S(=O)(=O)Nc2nccs2)cc1 [Sulfathiazole] | 389
COc1cc(N)c(Cl)cc1C(=O)NC1CCN(CCCOc2ccc(F)cc2)CC1OC (stereo not drawn) [Cisapride] | 397
CCOCCn1c(N2CCCN(C)CC2)nc2ccccc21 [Emedastine] | 387
Cc1nccn1CC1CCc2c(c3ccccc3n2C)C1=O.Cl (stereo not drawn) [Ondansetron Hydrochloride] | 407
Cc1c(NC(=O)c2cccnc2)c(=O)n(-c2ccccc2)n1C [Nifenazone] | 380
CC1(C)S[C@@H]2[C@H](NC(=O)[C@H](NC(=O)N3CCNC3=O)c3ccccc3)C(=O)N2[C@H]1C(=O)O [Azlocillin sodium salt] | 396
NNC(=O)c1ccncc1 [Isoniazid] | 404
CCn1cc(C(=O)O)c(=O)c2cc(F)c(N3CCNC(C)C3)c(F)c21 (stereo not drawn) [Lomefloxacin hydrochloride] | 390
CC(CCc1ccccc1)NC(C)C(O)c1ccc(O)cc1 (stereo not drawn) [Nylidrin] | 408
CCCCC1(COC(=O)CCC(=O)O)C(=O)N(c2ccccc2)N(c2ccccc2)C1=O [Suxibuzone] | 392
Cl.c1cnc(N2CCN(Cc3ccc4c(c3)OCO4)CC2)nc1 [Piribedil hydrochloride] | 392
C[C@]12CCC(=O)C=C1CC[C@@H]1[C@@H]2C(=O)C[C@@]2(C)[C@H]1CC[C@]2(O)C(=O)CO [Cortisone] | 403
Cc1cc2cc3c(C)cc(=O)oc3c(C)c2o1 [Trioxsalen] | 390

Same assay, conditions: 1280-compound library screen; […]

Compound | ThS net change
CC(=O)[N-]S(=O)(=O)c1ccc(N)cc1.O.[Na+] [Sulfacetamide sodic hydrate] | 393
CCOc1ccccc1O[C@@H](c1ccccc1)[C@H]1CNCCO1.CS(=O)(=O)O [Reboxetine mesylate] | 386

Same assay, conditions: library screen, ThS fluorescence net change over 16 h with p-tau

Compound | ThS net change
CN(C)[C@@H]1C(O)=C(C(N)=O)C(=O)[C@@]2(O)C(O)=C3C(=O)c4c(O)cccc4[C@@](C)(O)[C@H]3C[C@@H]12 [Tetracycline hydrochloride] | 202
CCOc1ccc2ccccc2c1C(=O)N[C@@H]1C(=O)N2[C@@H]1SC(C)(C)[C@@H]2C(=O)O [Nafcillin sodium salt monohydrate] | 317
CS(=O)(=O)OCCCCOS(C)(=O)=O [Busulfan] | 324
CN1CCCN=C1/C=C/c1cccs1.O=C(O)C(O)C(O)C(=O)O [Pyrantel tartrate] | 312

Same assay, conditions: p-tau aggregation modulator screen of 1280-compound library; ThS fluorescence net change

Compound | ThS net change
CC(CCc1ccccc1)NCC(O)c1ccc(O)c(C(N)=O)c1 (stereo not drawn) [Labetalol hydrochloride] | 353
COC(=O)C1=C(C)NC(C)=C(C(=O)OCCN(C)Cc2ccccc2)C1c1cccc([N+](=O)[O-])c1 (stereo not drawn) [Nicardipine hydrochloride] | 330
OCc1cc(C(O)CNCCCCCCOCCCCc2ccccc2)ccc1O (stereo not drawn) [Salmeterol] | 358
CC(N)C12CC3CC(CC(C3)C1)C2 (stereo not drawn) [Rimantadine Hydrochloride] | 365
CC1(C)S[C@@H]2[C@H](NC(=O)[C@H](N)c3ccccc3)C(=O)N2[C@H]1C(=O)O [Ampicillin trihydrate] | 355
CNC(=C[N+](=O)[O-])NCCSCc1csc(CN(C)C)n1 [Nizatidine] | 334
CC(C)(C)NC[C@@H](O)COc1cccc2c1CCCC2=O.Cl [(+) -Levobunolol hydrochloride] | 350
Cl.N[C@@H]1CCCCN(c2c(F)cc3c(=O)c(C(=O)O)cn(C4CC4)c3c2Cl)C1 [Besifloxacin hydrochloride] | 360
C[C@]12CC[C@@H]3c4ccc(O)cc4CC[C@H]3[C@@H]1CCC2=O [Estrone] | 344
COC(=O)Nc1nc2ccc(C(=O)c3ccccc3)cc2[nH]1 [Mebendazole] | 340
CCN(CC)CCNC(=O)COc1ccc(OC)cc1.Cl [Mefexamide hydrochloride] | 331
CC[C@H]1OC(=O)[C@H](C)[C@@H](O[C@H]2C[C@@](C)(OC)[C@@H](O)[C@H](C)O2)[C@H](C)[C@@H](O[C@@H]2O[C@H](C)C[C@H](N(C)C)[C@H]2O)[C@](C)(O)C[C@@H](C)/C(=N\OCOCCOC)[C@H](C)[C@@H](O)[C@]1(C)O [Roxithromycin] | 366
COc1cnc(NS(=O)(=O)c2ccc(N)cc2)nc1 [Sulfameter] | 357
CNCC(O)c1ccc(OC(=O)C(C)(C)C)c(OC(=O)C(C)(C)C)c1 (stereo not drawn) [Dipivefrin hydrochloride] | 357
CC(C(=O)O)c1ccc2c(c1)Cc1cccnc1O2 (stereo not drawn) [Pranoprofen] | 345
CCN(CCCc1ccccc1)CCCc1ccccc1.O=C(O)CC(O)(CC(=O)O)C(=O)O [Alverine citrate salt] | 374

Same assay, conditions: p-tau aggregation modulator screen of 1280-compound library; […]

Compound | ThS net change
Br.CN1[C@@H]2CC[C@H]1C[C@@H](OC(=O)C(O)c1ccccc1)C2 (stereo partly drawn) [Homatropine hydrobromide (R,S)] | 332
CC(=O)N(CC(O)CN(C(C)=O)c1c(I)c(C(=O)NCC(O)CO)c(I)c(C(=O)NCC(O)CO)c1I)c1c(I)c(C(=O)NCC(O)CO)c(I)c(C(=O)NCC(O)CO)c1I (stereo not drawn) [Iodixanol] | 338
COc1cc2nc(N3CCN(C(=O)C4CCCO4)CC3)nc(N)c2cc1OC (stereo not drawn) [Terazosin hydrochloride] | 366
CN(C)CCC(c1ccc(Cl)cc1)c1ccccn1 (stereo not drawn) [Chlorpheniramine maleate] | 354
Cc1cc(=O)n(-c2ccccc2)n1C [Antipyrine] | 359

Same assay, conditions: p-tau aggregation modulator screen of the compound library, ThS fluorescence net change

Compound | ThS net change
Cn1c(=O)c2c(ncn2CCO)n(C)c1=O [Etofylline] | 422
O=C(O)c1ccccc1Nc1cccc(C(F)(F)F)c1 [Flufenamic acid] | 416
CCN1CCC[C@H]1CNC(=O)c1c(OC)ccc(Br)c1OC.Cl [Remoxipride Hydrochloride] | 460
CCOC(=O)O[C@]1(C(=O)OCCl)CC[C@H]2[C@@H]3CCC4=CC(=O)C=C[C@]4(C)[C@H]3[C@@H](O)C[C@@]21C [Loteprednol etabonate] | 531
CC(C)(Oc1ccc(C2CC2(Cl)Cl)cc1)C(=O)O (stereo not drawn) [Ciprofibrate] | 448
Cc1cc(C(C#N)c2ccc(Cl)cc2)c(Cl)cc1NC(=O)c1cc(I)cc(I)c1O (stereo not drawn) [Closantel] | 423
CCOc1nc2cccc(C(=O)O)c2n1Cc1ccc(-c2ccccc2-c2nnn[nH]2)cc1 [Candesartan] | 415
CC(C[N+](C)(C)C)OC(N)=O (stereo not drawn) [Bethanechol chloride] | 418
CC[C@H](c1ccc(O)cc1)[C@@H](CC)c1ccc(O)cc1 [Hexestrol] | 435
CNc1ncnc2c1ncn2[C@@H]1O[C@H](CO)[C@@H](O)[C@H]1O [N6-methyladenosine] | 416
Nc1ccn([C@@H]2O[C@H](CO)[C@@H](O)C2(F)F)c(=O)n1 [Gemcitabine] | 470
C[C@]12C[C@H](O)[C@H]3[C@@H](CCC4=CC(=O)CC[C@@]43C)[C@@H]1CC[C@@H]2C(=O)CO [Corticosterone] | 416
CCC1NC(=O)c2cc(S(N)(=O)=O)c(Cl)cc2N1 (stereo not drawn) [Quinethazone] | 427
CC(C(=O)O)c1ccc2c(c1)[nH]c1ccc(Cl)cc12 (stereo not drawn) [Carprofen] | 478
CC1=C(C(=O)O)N2C(=O)[C@@H](NC(=O)[C@H](N)c3ccc(O)cc3)[C@H]2SC1 [Cefadroxil] | 413
C[C@H](CCC(=O)O)[C@H]1CC[C@H]2[C@@H]3[C@@H](O)C[C@@H]4C[C@H](O)CC[C@]4(C)[C@H]3CC[C@]12C [Urosiol] | 426
CCc1oc2ccccc2c1C(=O)c1cc(Br)c(O)c(Br)c1 [Benzbromarone] | 498
CC(=O)O[C@H]1C(=O)[C@@]2(C)[C@H]([C@H](OC(=O)c3ccccc3)[C@]3(O)C[C@H](OC(=O)[C@H](O)[C@@H](NC(=O)c4ccccc4)c4ccccc4)C(C)=C1C3(C)C)[C@]1(OC(C)=O)CO[C@@H]1C[C@@H]2O [Paclitaxel] | 437
CC(=O)Oc1ccccc1C(=O)O [Acetylsalicylic acid] | 492
